Source: US20180272327A1, “IONIC LIQUID CATALYST TREATING SYSTEM” (UOP LLC, priority 2015, published 2018)

Tested on: Aliivibrio fischeri bacteria
Assay: Toxicity test: EC-50 for the luminescence of Aliivibrio fischeri bacteria
Assay type: cell-based
Conditions: for EC-50 for this ionic liquid: worked out from the dilution EC-50 and the ionic liquid content of the solution
Description: After filtration to remove the precipitate, this solution, which contains approximately 0.014 mg of ionic liquid/mg solution, was tested for toxicity. The half maximal effective concentration (EC-50) for this solution was then determined for the luminescence of Aliivibrio fischeri bacteria to assess the toxicity of the solution. […] 10.1 grams of a tri-butyl pentyl phosphonium ionic liquid (TBPP) was added to 770 grams of deionized (DI) water, giving a pH of about 3. […] After filtration to remove the precipitate, this solution, which contains approximately 0.013 mg of ionic liquid/mg solution, was tested for toxicity. The EC-50 for this solution was then determined for the luminescence of Aliivibrio fischeri bacteria to assess the toxicity of the solution.

[1] = luminescence of Aliivibrio fischeri

CCCCn1cc[n+](C)c1.F[P-](F)(F)(F)(F)F [BMIM, 1-butyl-3-methylimidazolium hexafluorophosphate]
EC50 (Aliivibrio fischeri, read-out: EC-50 reached at a dilution (of the neutralized, filtered ionic liquid solution)): 5.7 µg/mL
EC-50 for this ionic liquid [1]: approximately 80 ppB

tri-butyl pentyl phosphonium ionic liquid [TBPP]
EC-50 reached at a dilution (of the neutralized, filtered ionic liquid solution) (luminescence of Aliivibrio fischeri, ionic liquid in DI water neutralized with NaOH to pH approximately 6, precipitate filtered off, approximately 0.013-0.014 mg ionic liquid/mg solution): 1.2 mg solution/Liter water
EC-50 for this ionic liquid [1]: approximately 16 ppB
